Test results reported in patent publication US5627143A, “Wellbore fluid” (Dowell Schlumberger Incorporated, priority 1993, dated 1997).
Read-outs that look alike come from different tables or passages of the source.

Tests used:
Type in all cases: physicochemical
[1] = Example 5: visible fluorescence under ultraviolet illumination
Source text: A sample of C14-16 linear alphaolefin was placed under ultraviolet illumination and its visible fluorescence noted. The fluorescence was compared to that of some other known base oils.

[2] = Kinematic viscosity (KV) of base oils
Source text: KV: The kinematic viscosity of an oil in centistokes.
(§1) Some properties of alk-1-enes of carbon number between 12 and 20 are shown in Table 1 (which appears at the end of this description) and compared with an ester oil, a linear alkyl benzene, and a polyalphaolefin.

[3] = Pour point of base oils
Source text: as §1

[4] = Flash point of base oils
Source text: as §1

| Compound | Fluorescence (colour) ([1]; continued lines of the cell) | Fluorescence (intensity) ([1]; first printed line of the cell) | KV at 40° C. ([2]; 40° C.) [Cst] | KV at 40° C. [2] [Cst] | Pour Point [3] | Flash Point [4] [°C] |
| --- | --- | --- | --- | --- | --- | --- |
| CCCCCCCC/C=C\CCCCCCCC(=O)OCC(CC)CCCC (stereo not drawn) [2-ethylhexyl oleate] | white | Medium |  |  |  |  |
| C=CCCCCCCCCCC [C12] |  |  |  | 1.29 | -35 °C | 77 |
| C=CCCCCCCCCCCCCCC [C16] |  |  |  | 2.62 | +4 °C |  |

Continued, in another order:

| Fluorescence (colour) ([1]; continued lines of the cell) | Fluorescence (intensity) ([1]; first printed line of the cell) | KV at 40° C. ([2]; 40° C.) [Cst] | Compound | KV at 40° C. [2] [Cst] | Pour Point [3] | Flash Point [4] [°C] |
| --- | --- | --- | --- | --- | --- | --- |
|  |  | 1.85 | C=CCCCCCCCCCCCC [C14] |  | -13 °C | 107 |
|  |  | 3.59 | C=CCCCCCCCCCCCCCCCC [C18] |  | +18 °C |  |
